Data published in patent publication US10752588B2 (The Broad Institute, Inc., priority 2014, dated 2020).
Converted amounts (≈) assume the structure as drawn. Like-named read-outs stand apart in the source and are kept apart here.

Tests used:
[1] = biological target: T1, human D2R/β-arrestin (Homo sapiens (Human), UniProt P14416); assay: Gi/cAMP agonist assay (Lance Ultra cAMP, Forskolin); type: cell-based; conditions: CHO-K1 cell line expressing human D2R/β-arrestin
Procedure, shortened: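 Read-out was Lance Ultra competitive TR-FRET (Eu-cAMP tracer plus ULight-anti-cAMP) following forskolin-induced cAMP production. Before forskolin stimulation, compounds were pin-transferred onto the seeded cells for 10 min at 37 °C.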

[2] = Plasma stability, mouse
[3] = Plasma stability, rat; type: in vitro ADME
[4] = biological target: T1, human D2R/β-arrestin; assay: cell-based; conditions: β-arrestin Antagonist, CHO-K1 cell line expressing human D2R/β-arrestin; quinpirole used as agonist
Procedure: (§1) The detection reagents are then added, and the read-out is detected.
(§2) Cells were prepared for assays by growing cultures for up to 2 weeks (from about 6-20 passages). A vial of frozen cells was thawed in a water bath held at 37° C. The cells were then transferred into a 50 ml tube with 10 ml growth media. The vial was rinsed with growth media and the contents transferred to the 50 ml tube. The 50 ml tube was centrifuged at 1200 rpm for 5 minutes at room temperature. […] When the cells reached about 90% confluence (approximately 3 days between passages), the cells were passaged and used for either the agonist or antagonist assays as described below.
(§3) The cells were prepared for β-arrestin assays as described above. The assays were performed using a PathHunter® β-Arrestin Detecting Kit (DiscoveRX). The cells were grown on 225 mm dishes, then washed once with 1×PBS (Cellgro), followed by digestion with 2.5 ml 1× Detachment reagent (DRX 92-0009) for approximately 2 minutes.

[5] = Microsomal stability, mouse
[6] = Microsomal stability, human; type: in vitro ADME
[7] = biological target: D2 (Homo sapiens (Human), UniProt P14416); assay: D2 radioligand binding assay
D2, sequence (P14416 whole entry): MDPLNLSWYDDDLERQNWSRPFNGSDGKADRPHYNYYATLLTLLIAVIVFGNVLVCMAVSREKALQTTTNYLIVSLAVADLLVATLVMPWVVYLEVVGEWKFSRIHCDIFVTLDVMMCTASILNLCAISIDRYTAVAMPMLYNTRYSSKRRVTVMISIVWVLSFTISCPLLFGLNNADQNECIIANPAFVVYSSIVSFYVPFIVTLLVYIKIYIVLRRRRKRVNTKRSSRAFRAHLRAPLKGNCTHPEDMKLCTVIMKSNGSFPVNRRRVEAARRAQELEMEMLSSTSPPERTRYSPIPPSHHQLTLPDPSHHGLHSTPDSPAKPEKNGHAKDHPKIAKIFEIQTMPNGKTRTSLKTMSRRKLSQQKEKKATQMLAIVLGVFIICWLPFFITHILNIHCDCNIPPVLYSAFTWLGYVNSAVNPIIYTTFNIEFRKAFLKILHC

[8] = Microsomal stability, rat; type: in vitro ADME
[9] = biological target: T1, human D2R/β-arrestin; assay: β-Arrestin agonist assay (PathHunter); type: cell-based; conditions: CHO-K1 cell line expressing human D2R/β-arrestin
Procedure, shortened: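 Readout follows addition of Buffer:Emerald II:Galactor-Star reagent (19:5:1) to agonist-treated plates, measured as luminescence or fluorescence.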

[10] = test system: plasma protein; assay: Plasma protein binding, human; type: in vitro ADME; conditions: for fraction unbound: plasma, read-out: Plasma Protein Binding % bound
[11] = test system: plasma protein; assay: Plasma protein binding, mouse; type: in vitro ADME; conditions: for fraction unbound: plasma, read-out: Plasma Protein Binding % bound
[12] = biological target: T1, human D2R/β-arrestin; assay: cell-based; conditions: cAMP Antagonist, CHO-K1 cell line expressing human D2R/β-arrestin; quinpirole used as agonist
[13] = Solubility in PBS; type: physicochemical
[14] = Plasma stability, human; type: in vitro ADME
[15] = test system: plasma protein; assay: Plasma protein binding, rat; type: in vitro ADME; conditions: for fraction unbound: plasma, read-out: Plasma Protein Binding % bound
[16] = biological target: T1, human D2R/β-arrestin; conditions: read-out: β-arrestin Antagonist
Procedure: as §1, §2, §3

[17] = biological target: T1, human D2R/β-arrestin; conditions: read-out: cAMP Antagonist

T1 sequence (P14416 whole entry): as above

Compound | EC50 [1] [µM] | Plasma Stability: % remaining after 5 hours [2] [%] | Plasma Stability: % remaining after 5 hours [3] [%] | IC50 [4] [µM] | Microsomal Stability: % remaining after 60 minutes [5] [%] | Microsomal Stability: % remaining after 60 minutes [6] [%] | Microsomal Stability: % remaining after 60 minutes [8] [%] | EC50 [9] [µM] | fraction unbound [10] | fraction unbound [11] | IC50 [12] [µM] | solubility ([13]; aqueous buffer) [µM] | Plasma Stability: % remaining after 5 hours [14] [%] | fraction unbound [15] | further results
O=C(NC(c1ccc(F)cc1)c1ccc(Cl)cc1)C1CCN(CCOc2ccccc2)CC1 (stereo not shown) [Compound 42] | 0.1 to 1 | 100 | 93 | 0.1 to 1 | 59 | 40 | 70 | > 30 | 0.007 | 0.007 | 0.1 to 1 | < 0.1 | 98 | 0.014 | Ki [7]: 0.1 to 1 µM
O=C(NC(c1ccc(Cl)cc1)c1ccccn1)C1CCN(CCOc2ccc3cccnc3c2)CC1 (stereo not shown) [Compound 16] | < 0.1 | 94 | 97 | > 30 | 45 | 34 | 75 | 1 to 10 | 0.01 | 0.023 | > 30 | 14 (≈ 7.01 µg/mL) | 98 | 0.021 | Ki [7]: 10 to 30 µM
O=C(NC(c1ccc(Cl)cc1)c1ccccn1)C1CCN(CCOc2ccc3ccc(=O)[nH]c3c2)CC1 (stereo not shown) [Compound 15] | > 30 | 100 | 91 |  | 44 | 56 | 68 | > 30 |  |  |  |  | 96 |  | IC50 [16]: 10 to 30 µM; IC50 [17]: > 30 µM; Plasma Protein Binding % bound [10]: 97.7%; Plasma Protein Binding % bound [11]: 97.4%; solubility [13]: 4.1 µM (≈ 2.12 µg/mL); Plasma Protein Binding % bound [15]: 99.0%
O=C(NC(c1ccccc1)c1ccc(F)cc1)C1CCN(CCOc2ccccc2)CC1 (stereo not shown) [Compound 45] | > 30 | 91 | 85 | < 0.1 | 62 | 56 | 59 | > 30 | 0.017 | 0.015 | < 0.1 | 6.5 (≈ 2.81 µg/mL) | 95 | 0.012 | 
O=C(NC(c1cccc(Cl)c1)c1ccccn1)C1CCN(CCOc2ccccc2)CC1 (stereo not shown) [Compound 23] | > 30 | 100 | 96 | 0.1 to 1 | 41 | 76 | 77 | > 30 | 0.023 | 0.03 | 0.1 to 1 | 225 (≈ 101 µg/mL) | 100 | 0.033 | 
O=C(NC(c1ccc(Cl)cc1)c1ccccn1)C1CCN(CCn2ccc(=O)cc2)CC1 (stereo not shown) [Compound 11] | > 30 | 89.5 | 100 | > 30 | 100 | 95 | 100 | > 30 | 0.485 | 0.391 | 10 to 30 | > 500 | 98.2 | 0.211 | Ki [7]: 10 to 30 µM
O=C(NC(c1ccc(Cl)cc1)c1ccccn1)C1CCN(CCOc2cc(F)ccc2F)CC1 (stereo not shown) [Compound 14] | < 0.1 | 100 | 78.2 | 0.1 to 1 | 11 | 49 | 44 | > 30 | 0.009 | 0.015 | > 30 | 36.1 (≈ 17.5 µg/mL) | 96.7 | 0.006 | 
O=C(NC(c1cccc(C(F)(F)F)c1)c1ccccn1)C1CCN(CCOc2ccccc2)CC1 (stereo not shown) [Compound 32, 1-(2-phenoxyethyl)-N-(pyridin-2-yl(3-(trifluoromethyl)phenyl)methyl) piperidine-4-carboxamide] | 10 to 30 | 74 | 98 | 0.1 to 1 | 37 | 61 | 46 | > 30 | 0.03 | 0.031 | 0.1 to 1 | 151 (≈ 73 µg/mL) | 91 | 0.023 | 
O=C(NC(c1ccc(Cl)cc1)c1ccccn1)C1CCN(CCOc2ccc(F)cc2)CC1 (stereo not shown) [Compound 5] | 10 to 30 | 90.5 | 95.2 | 1 to 10 | 42 | 71 | 84 | > 30 | 0.195 | 0.021 | 1 to 10 | 311 (≈ 146 µg/mL) | 91.2 | 0.142 | 
O=C(NC(c1ccc(C(F)(F)F)cc1)c1ccccn1)C1CCN(CCOc2ccccc2)CC1 (stereo not shown) [Compound 31, 1-(2-phenoxyethyl)-N-(pyridin-2-yl(4-(trifluoromethyl)phenyl)methyl) piperidine-4-carboxamide] | 0.1 to 1 | 84.5 | 100 | 1 to 10 | 57 | 53 | 55 | > 30 | 0.023 | 0.026 | > 30 | 27 (≈ 13.1 µg/mL) | 94.2 | 0.014 | 
O=C(NC(c1ccc(Cl)cc1)c1cccc(F)c1)C1CCN(CCOc2ccccc2)CC1 (stereo not shown) [Compound 41] | > 30 | 100 | 96 | 1 to 10 | 64 | 45 | 78 | > 30 | 0.007 | 0.006 | 0.1 to 1 | < 0.1 | 100 | 0.014 | 
O=C(NC(c1cccc(F)c1)c1ccccn1)C1CCN(CCOc2ccccc2)CC1 (stereo not shown) [Compound 26] | > 30 | 92 | 99 | 1 to 10 | 66 | 84 | 96 | > 30 | 0.062 | 0.057 | 0.1 to 1 | 460 (≈ 199 µg/mL) | 100 | 0.046 | 
O=C(NC(c1ccccn1)c1ccccc1F)C1CCN(CCOc2ccccc2)CC1 (stereo not shown) [Compound 28] | 0.1 to 1 | 95 | 99 |  | 52 | 87 | 78 | > 30 |  |  |  |  | 100 |  | IC50 [16]: 1 to 10 µM; IC50 [17]: > 30 µM; Plasma Protein Binding % bound [10]: 75.3%; Plasma Protein Binding % bound [11]: 72.2%; solubility [13]: 434 µM (≈ 188 µg/mL); Plasma Protein Binding % bound [15]: 76.7%
O=C(NC(c1ccccc1)c1ccc(Cl)cc1)C1CCN(CCOc2ccccc2)CC1 (stereo not shown) [Compound 39] | > 30 | 93 | 86 | 0.1 to 1 | 65 | 49 | 55 | > 30 | 0.021 | 0.02 | 0.1 to 1 | 3.3 (≈ 1.48 µg/mL) | 100 | 0.046 | 
